# Measurements reported in patent US20090176786A1, “Benzoylurea Compounds and Use Thereof” (priority 2005, published 2009).
# How the values were obtained:
# Type in all cases: in vivo
# [1] = tested on: Plutella xylostella; experiment: Test Example 1: spray on cabbage, dead pest rate of Plutella xylostella larvae; conditions: 500 ppm spray solution, 20 ml/cup on cabbage, 5 second-instar larvae, after 5 days; for pest or weed control at 500 ppm: Plutella xylostella, 120 h
# Description: Ten parts of the present compound (1), (2), (5) to (19), (21) to (34), (36) to (61), (63), (64), (68) to (71), (74), (76) to (78), (82) to (83), (89), (93), (94), (97), (99), (102) to (110), (111), (115), (116) (117) to (120) or (123) to (134); 35 parts of white carbon containing 50 parts of polyoxyethylene alkyl ether sulfate ammonium salt; and 55 parts of water were mixed, and finely ground by a wet grinding method to obtain a 10% flowable agent. The obtained flowable agent was diluted with water so that the active ingredient concentration became to 500 ppm to prepare a spray solution for test.
# Cabbages were planted in polyethylene cups, and grown until the third true leaf or the fourth true leaf was developed. The spray solution for test prepared above was sprayed at a rate of 20 ml/cup on the cabbages.
# After the pesticidal solution sprayed onto the cabbages was dried, 5 second-instar larvae of Plutella xylostella were put on the cabbages. After 5 days, the number of dead Plutella xylostella was examined, and a dead pest rate was calculated by the following equation:
# (§1) Dead pest rate(%)=(the number of dead pests/the number of tested pests)×100
# [2] = tested on: Plutella xylostella; experiment: Test Example 2: cabbage root immersion (systemic), dead pest rate of Plutella xylostella larvae; conditions: Plutella xylostella, 120 h, root immersion 5 days, 10 second-instar larvae, after 5 days at 24° C.; for pest or weed control at 25 ppm: test concentration 25 ppm
# Description: In 0.25 mL of a mixture solution of Sorgen TW-20 (manufactured by Daiichi Industries Pharmaceuticals, Co., Ltd.) and acetone (mixture volume ratio; Sorgen TW-20:acetone=1:19), 2.5 mg of the present compound (1), (2), (3), (4), (7), (10), (11), (12), (16), (18), (19), (20), (21), (22), (25), (30), (36), (37), (41), (42), (52), (54), (56), (57), (60), (62), (105) or (109) was dissolved. The solution was diluted with ion-exchanged water so that the active ingredient concentration became to a predetermined concentration to prepare a pesticidal solution for test of the test compound. The root part of cabbages in the fourth leaf period were washed with tap water to remove soils, and then immersed in the pesticidal solution for test. After 5 days from immersion of the root part, the root part was removed, and the leaves and stems were put in a cup (volume; 180 mL). In the cup 10 second-instar larvae of Plutella xylostella were released, and the cup was stored at 24° C. After 5 days, the number of dead pests was counted, and the dead pest rate was calculated by the following equation:
# as §1
# The test concentrations of the other present compounds were 25 ppm.
# [3] = tested on: Frankliniella occidentalis; experiment: Test Example 4: spray on cucumber, control value against Frankliniella occidentalis larvae; conditions: 168 h, test concentration 50 ppm, spray 20 ml/cup on cucumber, 30 larvae, seven days after spraying
# Description: The obtained preparation was diluted with water so that the active ingredient concentration became to a predetermined concentration to prepare a spray solution for test. […] were planted in polyethylene cups, and were grown until the first true leaf was developed. The spray solution for test prepared above was sprayed at the rate of 20 ml/cup on the cucumber. After the pesticidal solution sprayed onto the cucumber was dried, the first true leaf was cut off and then placed on a filter paper (diameter: 70 mm) containing water in a polyethylene cup (diameter: 110 mm). On the cucumber leaf, 30 larvae of Frankliniella occidentalis were released, and the polyethylene cup was capped. Seven days after spraying, the number of pests surviving on the cucumber leaf was counted, and a control value was calculated by the following equation: Control value(%)={1−(Cb×Tai)/(Cai×Tb)}×100 wherein, each symbol has following meaning: Cb: the number of pests before treatment in a non-treated area Cai: the number of pests at the time of observation in a non-treated area Tb: the number of pests before treatment in a treated-area Tai: the number of pests at the time of observation in a treated-area. […] The test concentrations of the other present compounds were 50 ppm.
# [4] = tested on: Plutella xylostella; experiment: Test Example 9: spray on plants, cut aerial part, dead pest rate of third-instar Plutella xylostella larvae; conditions: 120 h, spray 20 ml/cup, 10 third-instar larvae, after 5 days at 25° C.; for pest or weed control at 12.5 ppm: test concentration 12.5 ppm; for pest or weed control at 50 ppm: test concentration 50 ppm; for pest or weed control at 200 ppm: test concentration 200 ppm
# Description: In a mixed solution (0.1 mL) of xylene and N,N-dimethylformamide (mixture volume ratio; xylene:N,N-dimethylformamide=1:1), 30 mg of the present compounds (3), (4), (20), (35), (62), (81), (100), (101) or (112) was dissolved, and further a mixed solution (0.1 mL) of xylene and SORPOL 3005X (manufactured by Toho Chemcials, Co., Ltd.) (mixture volume ratio; xylene:SORPOL 3005X=1:9) was added thereto. The solution was diluted with ion-exchanged water so that the active ingredient became to the predetermined concentration to prepare a pesticidal solution for test of the test compound.
# […] were planted in polyethylene cups, and grown until the third true leaf or the fourth true leaf was developed. The spray solution for test prepared above was sprayed at a rate of 20 ml/cup on the cabbages.
# After the pesticidal solution for test was dried, the aerial part of the cabbage was cut, and put into a polyethylene cup having a volume of 100 ml together with 10 third-instar larvae of Plutella xylostella, and stored at 25° C. After 5 days, the number of dead pests was countered, and the dead pest rate was calculated by the following equation:
# as §1
# Test concentrations of the others were 200 ppm.
# [5] = tested on: Spondoptela litura; experiment: Test Example 3: treated artificial diet (Insecta LF), dead pest rate of Spondoptela litura larvae; conditions: 2 mL on Insecta LF diet, 5 fourth-instar larvae, after 6 days; for pest or weed control at 500 ppm: 144 h
# From the text: Ten parts of the present compound (1) to (5), (7) to (13), (18) to (33), (35) to (49), (52) to (56), (58) to (61), (71), (73) to (77), (79), (80), (82), (83), (93), (94), (95), (96), (97), (100) to (109), (111), (112), (115), (117), (119), (121), or (123) to (133), 35 parts of white carbon containing 50 parts of polyoxyethylene alkyl ether sulfate ammonium salt, and 55 parts of water were mixed, and finely ground by a wet grinding method to obtain a preparation. The obtained preparation was diluted with water so that the active ingredient concentration became to 500 ppm to prepare a pesticidal solution for test. On the bottom of a polyethylene cup having a diameter of 5.5 cm, a filter paper having a diameter of 5.5 cm was placed, on which Insecta LF (Nippon Agriculture Industries, Co., Ltd.) sliced in a thickness of 6 mm and further cut half was laid, and to which 2 mL of the above-described pesticidal solution for test was added. After air-dried, 5 fourth-instar larvae of Spondoptela litura were released in the cup, and the cup was capped. After 6 days, the number of dead pests was counted, and the dead pest rate was calculated by the following equation:
# as §1
# [6] = tested on: Plutella xylostella; experiment: Test Example 6: cabbage root immersion, Plutella xylostella, against comparative compound C; conditions: 100 ppm; root immersion 5 days; 10 second-instar larvae; after 5 days at 24° C.
# Description: (§2) In 0.25 mL of a mixed solution of Tween-20 and acetone (mixture volume ratio: Tween-20:acetone=1:19), 2.5 mg of the present compound (93) or comparative compound C was dissolved. The solution was diluted with ion-exchanged water so that the active ingredient concentration became to the predetermined concentration (100 ppm) to prepare a pesticidal solution for test of the test compound. The root part of cabbages in the fourth leaf period was washed with tap water to remove soils, and then immersed in the pesticidal solution for test. After 5 days from immersion of the root part, the root part was removed, and the leaves and stems were put in a polyethylene cup (volume; 180 mL). In the cup 10 second-instar larvae of Plutella xylostella were released, and the cup was stored at 24° C. After 5 days, the number of dead pests was countered, and the dead pest rate was calculated by the following equation:
# as §1
# [7] = tested on: Plutella xylostella; experiment: Test Example 7: cabbage root immersion, Plutella xylostella, against comparative compound D; conditions: 25 ppm; root immersion 5 days; 10 second-instar larvae; after 5 days at 24° C.
# Description: as §2, with “compound (94)” for “compound (93)”, “compound D” for “compound C”, “concentration (25” for “concentration (100”, “a ice cream” for “a polyethylene”
# as §1
smiles,measurement,setting,value
CN(C(=O)NC(=O)c1c(F)cccc1F)c1ccc(SC(F)(F)F)cc1F [(1)],pest or weed control at 500 ppm,[1],100%
same,pest or weed control at 25 ppm,[2],100%
same,pest or weed control at 50 ppm,[3],100%
CN(C(=O)NC(=O)c1c(F)cccc1F)c1ccc(SC(F)(F)C(F)F)cc1F [(2)],pest or weed control at 500 ppm,[1],100%
same,pest or weed control at 25 ppm,[2],100%
same,pest or weed control at 50 ppm,[3],100%
CN(C(=O)NC(=O)c1c(F)cccc1Cl)c1ccc(SC(F)(F)F)cc1F [(3)],pest or weed control at 25 ppm,[2],100%
same,pest or weed control at 12.5 ppm,[4],100%
CCN(C(=O)NC(=O)c1c(F)cccc1F)c1ccc(SC(F)(F)F)cc1F [(4)],pest or weed control at 25 ppm,[2],100%
same,pest or weed control at 50 ppm,[3],100%
same,pest or weed control at 50 ppm,[4],100%
CN(C(=O)NC(=O)c1c(F)cccc1F)c1ccc(S(=O)(=O)C(F)(F)F)cc1F [(20)],pest or weed control at 5 ppm,"[2]; test concentration of 5 ppm, read-out: dead pest rate",100%
same,pest or weed control at 12.5 ppm,[4],100%
Cc1cc(SC(F)F)ccc1N(C)C(=O)NC(=O)c1c(F)cccc1F [(35)],pest or weed control at 50 ppm,[4],100%
CN(C(=O)N(CCOc1ccccc1)C(=O)c1c(F)cccc1F)c1ccc(SC(F)(F)F)cc1F [(62)],pest or weed control at 25 ppm,[2],100%
same,pest or weed control at 50 ppm,[3],100%
same,pest or weed control at 200 ppm,[4],100%
CN(C(=O)N(CC1CCCO1)C(=O)c1c(F)cccc1F)c1ccc(SC(F)(F)F)cc1F (stereo not shown) [(63)],pest or weed control at 500 ppm,[1],100%
CN(C(=O)N(Cc1ccco1)C(=O)c1c(F)cccc1F)c1ccc(SC(F)(F)F)cc1F [(64)],pest or weed control at 500 ppm,[1],100%
CN(C(=O)N(CC[S+](C)[O-])C(=O)c1c(F)cccc1F)c1ccc(SC(F)(F)F)cc1F (stereo not shown) [(74)],control value,[1],100%
COC(=O)CN(C(=O)c1c(F)cccc1F)C(=O)N(C)c1ccc(SC(F)(F)F)cc1F [(81)],pest or weed control at 50 ppm,[3],100%
same,pest or weed control at 200 ppm,[4],100%
CN(C(=O)NC(=O)c1c(F)cccc1F)c1ccc(C(=O)OC(C)(C)C)cc1 [(82)],control value,[1],100%
same,dead pest rate,[5]; 500 ppm,100%
C=CCSc1ccc(N(C)C(=O)NC(=O)c2c(F)cccc2F)c(F)c1 [(83)],pest or weed control at 500 ppm,[1],100%
same,pest or weed control at 500 ppm,[5],100%
C#CCSc1ccc(N(C)C(=O)NC(=O)c2c(F)cccc2F)c(F)c1 [(89)],pest or weed control at 500 ppm,[1],100%
CN(C(=O)NC(=O)c1c(F)cccc1F)c1cc(Cl)c(SC(F)(F)C(F)F)c(Cl)c1 [(93)],pest or weed control at 500 ppm,[1],100%
same,pest or weed control at 500 ppm,[5],100%
same,dead pest rate,[6],90%
CN(C(=O)N(C(=O)OCc1ccccc1)C(=O)c1c(F)cccc1F)c1ccc(SC(F)(F)F)cc1F [(97)],pest or weed control at 500 ppm,[1],100%
same,pest or weed control at 500 ppm,[5],100%
same,pest or weed control at 50 ppm,[3],100%
CN(C(=O)N(C(=O)c1c(F)cccc1F)S(=O)(=O)c1ccccc1)c1ccc(SC(F)(F)F)cc1F [(99)],pest or weed control at 500 ppm,[1],100%
CN(C(=O)NC(=O)c1c(F)cccc1F)c1cc(F)c(SC(F)(F)F)cc1F [(100)],pest or weed control at 200 ppm,[4],100%
CN(C(=O)c1c(F)cccc1F)C(=O)N(C)c1cc(F)c(SC(F)(F)F)cc1F [(101)],pest or weed control at 50 ppm,[3],100%
same,pest or weed control at 200 ppm,[4],100%
Cc1c(SC(F)F)ccc(N(C)C(=O)NC(=O)c2c(F)cccc2F)c1C [(111)],pest or weed control at 500 ppm,[1],100%
same,pest or weed control at 500 ppm,[5],100%
Cc1c(SC(F)F)ccc(N(C)C(=O)N(C)C(=O)c2c(F)cccc2F)c1C [(112)],pest or weed control at 500 ppm,[5],100%
same,pest or weed control at 50 ppm,[4],100%
CN(C(=O)N(C(=O)c1c(F)cccc1F)N(C)C)c1ccc(SC(F)(F)F)cc1F [(115)],pest or weed control at 500 ppm,[1],100%
same,pest or weed control at 500 ppm,[5],100%
CON(C(=O)c1c(F)cccc1F)C(=O)N(C)c1ccc(SC(F)(F)F)cc1F [(116)],pest or weed control at 500 ppm,[1],100%
"O=C(NC(=O)c1c(F)cccc1F)Nc1cc(Cl)c(SC(F)(F)C(F)F)c(Cl)c1 [comparative compound C, reference compound]",dead pest rate,[6],20%
"O=C(NC(=O)c1c(F)cccc1F)Nc1ccc(SC(F)(F)C(F)F)cc1 [comparative compound D, reference compound]",dead pest rate,[7],20%
